Consider 4 molecules from patent US20060121449A1, “Method for selection of compounds which inhibit clonal cell growth and use thereof” (priority 2002, published 2006).

In assay [1] the test system is polyoma virus transformed BHK21/c13 cells, clone S100T1. The assay is described as follows: Clonal test: clonal growth of S100T1 cells in soft agar (Exp 2, 4, 6, 15, 16). Format: cell-based, hamster. To be noted: for Significance: Exp 15, 5th day, ” = as line above; for Clonal growth: Exp 15, plate read the 5th day. The method, then: The clonal test comprises: • 1. seeding cells in soft agar optionally containing growth factor(s); • 2. handling or incubation of special gels (e.g. ultra low gelling temperature agarose), including the production of cell density gradients. • 3. incubating in suitable temperature and atmosphere and; • 4. regular monitoring of the cells and development of clones.
The clonal test can be directed in fluid medium or in soft agar medium. Usually only transformed cells will form clones in soft agar.
After seeding and mixing, the tubes were placed in the refrigerator for about 1 hour to consolidate the ultra low melting point agarose.
120000 S100T1 cells of a polyoma virus transformed BHK21/c13 cell line, were seeded in 1 ml soft agar medium in Falcon 50 ml centrifuge tubes. […] On the top of the agar layer 0.5 ml fluid medium was added.
Agar cultures were prepared in wells of 24 well Falcon tissue culture plate. […] Insulin (Actrapid, Novo) was added in a concentration of 0.1 i.u./ml to BHK21/c13 cell cultures only.
The cells were all single cells. Each well received 32000 cells (Table 4). Plate: 24 wells Falcon tissue culture plate received a bottom layer composed as in Table 3:
The cells were all single cells.
The wells contained two layers, each of 0.3 ml agar.
The agarose was added to double distilled water and solved by heating in micro oven.

The subject of assay [2] is polyoma virus transformed BHK21/c13 cells, line S100T1. As to the kind of experiment: Collocation inhibition test: clonal growth in sparsely and densely seeded areas of a cell density gradient of S100T1 cells in soft agar (Exp 13, 17, 19-26).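 For all read-outs here: soft agar cultures in 24-well plates with a cell density gradient in the top layer, compounds applied from DMSO stocks, clonal growth scored in sparse versus dense areas.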 As to conditions: for Compounds with significant inhibition of clonal growth of sparsely seeded cells: Exp 24; for Clonal growth read on the 3rd day after seeding / Clonal growth read on the 6th day after seeding: Exp 17.

Where [3] appears, read: Low conc., μM in wells: No 1 (4-OH—OPB) 2, 2 (Colchicine) 0.01, 3 (Diphenylhydantoin) 10, 4 (Podophyllotoxin) 0.03, 5 (Piroxicam) 5, 6 (Diclofenak) 10, 7 (Ibuprofen) 100, 8 (Naproxen) 50, 9 (Acetylsalicylic acid) 100.
Setting [4] is: High conc., μM in wells: No 1 (4-OH—OPB) 20, 2 (Colchicine) 0.1, 3 (Diphenylhydantoin) 100, 4 (Podophyllotoxin) 0.3, 5 (Piroxicam) 50, 6 (Diclofenak) 100, 7 (Ibuprofen) 1000, 8 (Naproxen) 500, 9 (Acetylsalicylic acid) 1000.
[5] abbreviates: 4-OH-OPB analogues, S100T1 in soft agar, high concentration.
Setting [6] is: 4-OH-OPB analogues, S100T1 in soft agar, low concentration.
The mark [7] stands for this setting: 4-OH-OPB analogues, S100T1 in soft agar, medium concentration.
Where [8] appears, read: Experiment 24, H: area with high cell density, High concentration, 48 hours.
[9] abbreviates: Experiment 24, H: area with high cell density, Low concentration, 48 hours.
Setting [10] is: Experiment 24, H: area with high cell density, Medium concentration, 48 hours.
[11] abbreviates: Experiment 24, L: area with low cell density, High concentration, 48 hours.
Where [12] appears, read: Experiment 24, L: area with low cell density, Low concentration, 48 hours.
Setting [13] is: Experiment 24, L: area with low cell density, Medium concentration, 48 hours.
Where [14] appears, read: Summary Table 3 of analogue tests (experiments 22-25), H (high cell density), High concentration.
Where [15] appears, read: Summary Table 3 of analogue tests (experiments 22-25), H (high cell density), Low concentration.
[16] abbreviates: Summary Table 3 of analogue tests (experiments 22-25), H (high cell density), Medium concentration.
Setting [17] is: Summary Table 3 of analogue tests (experiments 22-25), L (low cell density), High concentration.
Where [18] appears, read: Summary Table 3 of analogue tests (experiments 22-25), L (low cell density), Low concentration.
Setting [19] is: Summary Table 3 of analogue tests (experiments 22-25), L (low cell density), Medium concentration.
The mark [20] stands for this setting: High conc., μM in wells: No 1 (4-OH—OPB) 20, 2 (Colchicine) 0.1, 3 (Diphenylhydantoin) 100, 4 (Podophyllotoxin) 0.3, 5 (Piroxicam) 50, 6 (Diclofenak) 100.
Setting [21] is: High: #1 Colchicine 1, #2 Podophyllotoxin 3, #3 Etoposide 200, #4 4-OH—OPB 6.7 μM in wells, #5 DMSO 29.2 μl.
The mark [22] stands for this setting: Low: #1 Colchicine 0.1, #2 Podophyllotoxin 0.3, #3 Etoposide 20, #4 4-OH—OPB 0.67 μM in wells, #5 DMSO 1.16 μl.
[23] abbreviates: Medium: #1 Colchicine 0.3, #2 Podophyllotoxin 0.9, #3 Etoposide 60, #4 4-OH—OPB 2 μM in wells, #5 DMSO 6.8 μl.
Setting [24] is: Experiment 23, A (area with high cell density), High concentration, 48 hours.
Where [25] appears, read: Experiment 23, A (area with high cell density), Low concentration, 48 hours.
[26] abbreviates: Experiment 23, A (area with high cell density), Medium concentration, 48 hours.
Setting [27] is: Experiment 23, B (area with low cell density), High concentration, 48 hours.
The mark [28] stands for this setting: Experiment 23, B (area with low cell density), Low concentration, 48 hours.
[29] abbreviates: Experiment 23, B (area with low cell density), Medium concentration, 48 hours.

Like-named read-outs stand apart in the source and are kept apart here.

In the case of `O=C1N(c2ccccc2)N(c2ccccc2)C(=O)C1(O)Cc1ccccc1` [#9, 4-benzyl-1,2-diphenyl-4-hydroxy-3,5-pyrazolidinedione], the Significance entry in assay [1] (setting [3]) is listed as “””. The Clonal growth entry is “−” in assay [1] (setting [4]); “+” in assay [1] (setting [3]); “++” in assay [2] (setting [8]); “++(+)” in assay [2] (setting [9]); “+++” in assay [2] (setting [10]); “+” in assay [2] (setting [11]). Besides, the Clonal growth result in assay [2] (setting [12]) is reported as “+(+)”; in assay [2] (setting [13]), “+”; in assay [2] (setting [14]) it was “++”; in assay [2] (setting [15]), “++(+)”; in assay [2] (setting [16]) it was “+++”; in assay [2] (setting [17]), “+”. Moreover, the Clonal growth result was “+(+)” in assay [2] (setting [18]) and “+” in assay [2] (setting [19]). In assay [2] (setting [5]), the “Clonal growth, H: high density area of cell gradient, High” value was “++”. Further, the “Clonal growth, L: low density area of cell gradient, High” value (“Clonal growth, L … High” below) in assay [2] (setting [5]) is listed as “+”. Also, the “Clonal growth, H: high density area of cell gradient, Low” value (“Clonal growth, H … Low” below) in assay [2] (setting [6]) is given as “++(+)”. The “Clonal growth, H: high density area of cell gradient, Medium” value (“Clonal growth, H … Medium” below) in assay [2] (setting [7]) was “+++”. Also, the “Clonal growth, L: low density area of cell gradient, Medium” value (shortened to “Clonal growth, L … Medium”) in assay [2] (setting [7]) is on record as “+”. Besides, the “Compounds with significant inhibition of clonal growth of sparsely seeded cells” value in assay [2] (180000 S100T1 cells/well) is reported as “None”.

With `CCCCC(=O)C(=O)Nc1ccccc1` [#3, 2-oxo-hexanoic acid phenylamide], the Significance result in assay [1] (setting [20]) and in assay [1] (setting [3]) was “”” in each case. In addition, the Clonal growth result in assay [1] (setting [3]) is listed as “++”; in assay [2] (setting [24]), “++”; in assay [2] (setting [25]), “++(+)”; in assay [2] (setting [26]), “++(+)”; in assay [2] (setting [27]), “++”; in assay [2] (setting [28]) it was “++(+)”. In addition, the Clonal growth entry in assay [2] (setting [29]) is recorded as “++(+)”; in assay [2] (setting [14]) it was “++”; in assay [2] (setting [15]), “++(+)”; in assay [2] (setting [16]), “++(+)”; in assay [2] (setting [17]) it was “++”; in assay [2] (setting [18]), “++(+)”. The Clonal growth result in assay [2] (setting [19]) is listed as “++(+)”. For the same molecule, the “Clonal growth, H: high density area of cell gradient, High” value in assay [2] (setting [5]) is given as “++”. Besides, the “Clonal growth, L … High” value in assay [2] (setting [5]) was “++”. Besides, the “Clonal growth, H … Low” value in assay [2] (setting [6]) is “++(+)”. In assay [2] (setting [6]), the “Clonal growth, L: low density area of cell gradient, Low” value is “++(+)”. Further, the “Clonal growth, H … Medium” value in assay [2] (setting [7]) is “++(+)”. Also, the “Clonal growth, L … Medium” value in assay [2] (setting [7]) was “++(+)”. The “Clonal growth read on the 3rd day after seeding” value in assay [2] (setting [21]) and in assay [2] (setting [23]) was “(+)” in each case. The “Clonal growth read on the 6th day after seeding” value in assay [2] (setting [21]) is “−”; in assay [2] (setting [22]) it was “+”. For the same molecule, the Effect on growth result in assay [2] (Exp 23, 180000 S100T1 cells/well) is given as “did not show significant growth inhibition at all”.

Take `Cc1ccc(C2(O)C(=O)N(c3ccccc3)N(c3ccccc3)C2=O)cc1` [#8, 1,2-diphenyl-4-hydroxy-4-(4-methylphenyl)-3,5-pyrazolidinedione]: in assay [1] (setting [3]), the Significance entry was “””. Further, the Clonal growth result is on record as “−” in assay [1] (setting [4]); “+(+)” in assay [2] (setting [8]); “++” in assay [2] (setting [9]); “++” in assay [2] (setting [10]); “+(+)” in assay [2] (setting [11]); “+” in assay [2] (setting [12]). The Clonal growth result in assay [2] (setting [13]) was “+(+)”; in assay [2] (setting [14]), “++”; in assay [2] (setting [15]), “+(+)”; in assay [2] (setting [16]) it was “++”; in assay [2] (setting [17]) it was “+”; in assay [2] (setting [18]) it was “+(+)”. The Clonal growth result in assay [2] (setting [19]) is reported as “+(+)”. Further, the “Clonal growth, H: high density area of cell gradient, High” value in assay [2] (setting [5]) is reported as “++”. The “Clonal growth, L … High” value in assay [2] (setting [5]) is reported as “+”. Also, the “Clonal growth, H … Medium” value in assay [2] (setting [7]) is on record as “++”. Further, the “Compounds with significant inhibition of clonal growth of sparsely seeded cells” value in assay [2] (180000 S100T1 cells/well) is on record as “None”.

Turning to `Oc1ccc(N=Nc2ccccc2)cc1` [#1, p-hydroxy-azobenzene], the Significance result in assay [1] (setting [20]) and in assay [1] (setting [3]) was “yes” in each case. Further, the Clonal growth entry in assay [1] (setting [4]) was “−”; in assay [1] (setting [3]), “−”; in assay [2] (setting [24]), “+(+)”; in assay [2] (setting [25]) it was “+++”; in assay [2] (setting [26]), “+++”; in assay [2] (setting [27]) it was “+−”. The Clonal growth entry is reported as “++” in assay [2] (setting [28]); “++” in assay [2] (setting [29]); “+(+)” in assay [2] (setting [14]); “+++” in assay [2] (setting [15]); “+++” in assay [2] (setting [16]); “+−” in assay [2] (setting [17]). For the same molecule, the Clonal growth entry in assay [2] (setting [18]) and in assay [2] (setting [19]) was “++” in each case. Moreover, the “Clonal growth, H … Low” value in assay [2] was “+++”. Besides, the “Clonal growth, H … Medium” value in assay [2] was “+++”. Besides, in assay [2], the “Clonal growth, L … High” value is given as “+−”. For the same molecule, the “Clonal growth, L: low density area of cell gradient, Low” value in assay [2] is reported as “++”. Besides, the “Clonal growth, L … Medium” value in assay [2] was “++”. Further, in assay [2], the “Clonal inhibition by 4-OH-OPB analogues, summary of Exp 22-25” value is given as “complete inhibition of growth in sparsely seeded areas”. Also, the “Clonal growth read on the 3rd day after seeding” value in assay [2] (setting [21]) is “−”; in assay [2] (setting [22]), “++”; in assay [2] (setting [23]) it was “++”. In addition, the “Clonal growth read on the 6th day after seeding” value in assay [2] (setting [22]) and in assay [2] (setting [23]) was “+” throughout.
